Assay results taken from patent US20120028985A1, “COMBINATIONAL THERAPY FOR TREATING AUTOIMMUNE DISEASE” (4SC AG, priority 2008, published 2012).
“Also recorded” adds a separate entry of the source. Marks after values point to notes of the source that are not given here.

Legend:
DBA1/J mice = test: Liver histology in collagen induced arthritis mice; type: in vivo; conditions: individual mouse; diseased mice; po, MTX 2.5 mg/kg, Formula (II) 50 mg/kg
Source text: Dosing is started, PO (per oral) once daily for 14 days.

Beagle dogs [1] = test: 13-week repeat dose toxicity in Beagle dogs, combination with methotrexate: clinical biochemistry (ALAT, ASAT); type: in vivo; conditions: for ALAT, change as compared to the control group 1 / ASAT, change as compared to the control group 1: 25 mg Formula (II)/kg/day and/or 10/2.5 mg MTX/kg/week, p.o.
Description: For laboratory examinations blood samples were taken from the vena cephalica or vena saphena magna from animals fasted overnight. Serum samples were collected into tubes for biochemical tests. Clinical biochemistry parameters from venous blood were determined at the times listed below:
Prior to study start: all animals of a pool of 52 dogs […]
At the end of the recovery period: all 8 recovery animals included in this study
Clinical biochemistry parameters (e.g. bile acids, alanine aminotransferase=ALAT, alkaline phosphatise=aP, aspartate aminotransferase=ASAT, gamma-glutamyl-transferase=Gamma-GT, glutamate dehydrogenase=GLDH, creatine kinase=CK) were measured using KONELAB 30i instrument (Thermo Fisher Scientific, 63303 Dreieich, Germany) as U/L (unit/liter) serum.

[2] = Toxicokinetics of formula (II) and methotrexate after individual and concomitant administration to Beagle dogs; type: in vivo; conditions: Beagle, dog, plasma, po, mean
Beagle dogs [3] = test system: Beagle dogs
Source text: The animals were randomly allocated to five test groups employing a pseudo-random body weight stratification procedure that yielded groups with approximately equal mean body weights. […] A special focus of the study was to study the influence of the combination treatment on liver toxicity.

[4] = female, 2.5 mg/kg, Group 3, methotrexate alone 2.5 mg/kg (reduced from 10), week 13, female Beagle dogs
[5] = female, 2.5 mg/kg, Group 4 (+10SC, in combination with 10 mg/kg formula (II)), methotrexate 2.5 mg/kg (reduced from 10), week 13, female Beagle dogs
[6] = female, 2.5 mg/kg, Group 5 (+25SC, in combination with 25 mg/kg formula (II)), methotrexate 2.5 mg/kg (reduced from 10), week 13, female Beagle dogs
[7] = female, 10 mg/kg, Group 3, methotrexate 10 mg/kg alone, day 1, female Beagle dogs
[8] = female, 10 mg/kg, Group 4 (+10SC, in combination with 10 mg/kg formula (II)), methotrexate 10 mg/kg, day 1, female Beagle dogs
[9] = female, 10 mg/kg, Group 5 (+25SC, in combination with 25 mg/kg formula (II)), methotrexate 10 mg/kg, day 1, female Beagle dogs
[10] = male, 2.5 mg/kg, Group 3, methotrexate alone 2.5 mg/kg (reduced from 10), week 13, male Beagle dogs
[11] = male, 2.5 mg/kg, Group 4 (+10SC, in combination with 10 mg/kg formula (II)), methotrexate 2.5 mg/kg (reduced from 10), week 13, male Beagle dogs
[12] = male, 2.5 mg/kg, Group 5 (+25SC, in combination with 25 mg/kg formula (II)), methotrexate 2.5 mg/kg (reduced from 10), week 13, male Beagle dogs
[13] = male, 10 mg/kg, Group 3, methotrexate 10 mg/kg alone, day 1, male Beagle dogs
[14] = male, 10 mg/kg, Group 4 (+10SC, in combination with 10 mg/kg formula (II)), methotrexate 10 mg/kg, day 1, male Beagle dogs
[15] = male, 10 mg/kg, Group 5 (+25SC, in combination with 25 mg/kg formula (II)), methotrexate 10 mg/kg, day 1, male Beagle dogs

## CN(Cc1cnc2nc(N)nc(N)c2n1)c1ccc(C(=O)N[C@@H](CCC(=O)O)C(=O)O)cc1 [MTX, methotrexate, reference compound]
DBA1/J mice
  Liver Histology, Observations: Minimal glycogen depletion, hepatocyte; also recorded: Mild glycogen depletion, hepatocyte; also recorded: Normal; also recorded: Minimal multifocal subacute inflammation
Beagle dogs [1]; Beagle dogs, 13 weeks oral, serum
  Changes in the biochemical parameters: pronounced and statistically significant (at p≦0.01) changes in the biochemical parameters of ALAT, ASAT, CK, GLDH as well as bile acids
Beagle dogs [1]; Test day 37, females
  ALAT, change as compared to the control group 1: +190%
  ASAT, change as compared to the control group 1: +47** %
Beagle dogs [1]; Test day 37, males
  ALAT, change as compared to the control group 1: none
  ASAT, change as compared to the control group 1: none
Beagle dogs [1]; Test day 93, females
  ALAT, change as compared to the control group 1: +567%
  ASAT, change as compared to the control group 1: +34** %
Beagle dogs [1]; Test day 93, males
  ALAT, change as compared to the control group 1: +386%
  ASAT, change as compared to the control group 1: +55** %
[2]; [4]
  AUC(0-inf): 2200 ng·h/mL
  Cmax: 500 ng/mL
  half-life: 2.3 h
[2]; [5]
  AUC(0-inf): 1900 ng·h/mL
  Cmax: 400 ng/mL
  half-life: 2.6 h
[2]; [6]
  AUC(0-inf): 1400 ng·h/mL
  Cmax: 200 ng/mL
  half-life: 2.7 h
[2]; [7]
  AUC(0-inf): 5300 ng·h/mL
  Cmax: 1100 ng/mL
  half-life: 2.4 h
[2]; [8]
  AUC(0-inf): 7500 ng·h/mL
  Cmax: 1700 ng/mL
[2]; [9]
  AUC(0-inf): 5000 ng·h/mL
  Cmax: 1200 ng/mL
  half-life: 2 h
[2]; [10]
  AUC(0-inf): 3000 ng·h/mL
  Cmax: 700 ng/mL
  half-life: 2.6 h
[2]; [11]
  AUC(0-inf): 2000 ng·h/mL
  Cmax: 400 ng/mL
  half-life: 2 h
[2]; [12]
  AUC(0-inf): 2500 ng·h/mL
  Cmax: 600 ng/mL
  half-life: 2.1 h
[2]; [13]
  AUC(0-inf): 6400 ng·h/mL
  Cmax: 1800 ng/mL
  half-life: 1.6 h
[2]; [14]
  AUC(0-inf): 6600 ng·h/mL
  Cmax: 1700 ng/mL
  half-life: 1.6 h
[2]; [15]
  AUC(0-inf): 5900 ng·h/mL
  Cmax: 1200 ng/mL
  half-life: 2.2 h
Beagle dogs [3]; Beagle dogs, 10 mg MTX/kg body weight/week, oral
  Premature death: found dead in the morning of test day 20
Beagle dogs [3]; dog, in vivo, po
  Enteritis in the gastro-intestinal mucosa: most pronounced
